# Assays:
# Assay type in all cases: cell-based
# STING variants (WT) = target: T1, STING variants (WT) (Homo sapiens, UniProt Q86WV6); assay: SEAP reporter assay in HEK-Blue ISG KO-STING cells transfected with STING WT variant (Method 1); conditions: 24 h
# T1 construct: host or cells: HEK-Blue ISG KO-STING cells (Invivogen, hkb-kostg)
# Text: (§1) Example I: STING Variants (WT & HAQ) Activation by Compounds in HEK-Blue™ ISG KO-STING Cells (Method 1)
# (§2) Activation of STING can be determined using a SEAP reporter assay in HEK-Blue™ ISG KO-STING cells (Invivogen, cat #hkb-kostg) transfected with plasmids expressing STING variants (WT & HAQ) (referred to WO2017/175147A1). STING variants (WT & HAQ) vector were constructed based on STING-232H vector (Origene, RC208418). GFP vector (VT2069) was bought from Youbio. The detailed protocol as follows: HEK-Blue™ ISG KO-STING cells were harvest and seeding into 96 well plate, the final cell number was 0.8×10^5 cells/well. Transfections were prepared using Lipofectamine 2000 (Invitrogen, Cat #11668-027) following the manufacturer's instructions (Lipo2000:DNA=1:10), 20 ul of transfection suspension containing 1 ng STING vector was added to cell culture plate and incubated at 37° C., 5% CO2 for 24 h. After 24 hours incubation, compounds were added at proper concentration, and the final DMSO concentration was 0.5%. After 24 h incubation, the supernatant was collected to detect SEAP signal using Great EscAPe SEAP chemiluminescence KIT (Clontech, cat #631738) and cells were collected to detect cell viability using CellTiter-Glo Luminescent Cell Viability Assay (Promega, cat #G7573) following the manufacturer's instructions. The data were described by the ratio of the stimulating signal of compounds to 0.5% DMSO.
# STING variants (HAQ) = target: T2, STING variants (HAQ) (Homo sapiens, UniProt Q86WV6, G230A/R293Q/R71H); assay: SEAP reporter assay in HEK-Blue ISG KO-STING cells transfected with STING HAQ variant (Method 1); conditions: 24 h
# T2 construct: host or cells: HEK-Blue ISG KO-STING cells (Invivogen, hkb-kostg)
# T2 sequence (Q86WV6 whole entry R71H/G230A/R293Q): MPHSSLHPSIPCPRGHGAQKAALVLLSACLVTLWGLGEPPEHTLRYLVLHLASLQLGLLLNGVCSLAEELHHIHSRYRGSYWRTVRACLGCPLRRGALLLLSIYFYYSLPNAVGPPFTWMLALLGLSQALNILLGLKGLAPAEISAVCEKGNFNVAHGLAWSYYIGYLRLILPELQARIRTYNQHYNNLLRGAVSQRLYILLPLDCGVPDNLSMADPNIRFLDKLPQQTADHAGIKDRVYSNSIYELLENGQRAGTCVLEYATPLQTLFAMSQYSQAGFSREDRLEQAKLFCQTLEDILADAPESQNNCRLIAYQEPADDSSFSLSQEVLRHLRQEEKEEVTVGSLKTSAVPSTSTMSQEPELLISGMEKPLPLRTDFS
# Text: as §1, §2
# STING = target: T3, STING (Homo sapiens, UniProt Q86WV6, G230A/H232R/R293Q/R71H); assay: IFNβ release from THP1 by STING activation (hIFNβ ELISA); conditions: THP1 cells, 24 h, IFN-β in supernatant; inactive = IFNβ not detected at the maximum concentration of compounds
# T3 construct: THP1 was purchased from National Collection of Authenticated Cell Cultures (Cat #TCHu 57); host or cells: THP1
# T3 sequence (Q86WV6 whole entry R71H/G230A/H232R/R293Q): as the sequence (Q86WV6 whole entry R71H/G230A/R293Q) above, with H232R counted along it
# Protocol: Example III: Compound Stimulate THP1 to Release IFNβ by STING Activation
# In this assay, activation of STING by compounds was evaluated by detecting their ability to stimulate the secretion of IFN-β (interferon-beta) from THP1. THP1 was purchased from National Collection of Authenticated Cell Cultures (Cat #TCHu 57). The top dose of compounds was setted according to their solubility. First, Compounds were 3 times diluted with medium, 8-dose points in total. The final DMSO concentration was 0.2%. THP1 during the logarithmic phase was resuspended to 2×10^6 cells/ml in assay medium. The THP1-cell suspension was dispensed into a 96-well U bottom plate containing 50 ul of compound diluted in medium. After 24 h incubation at 37° C., 5% CO2, the supernatant was collected. The concentration of IFN-β in the supernatant was measured using a human IFNβ ELISA KIT (R&D, DY814-05). The data was fitted with GraphPad Prism or XLfit to calculate EC50 values.
# [1] = compound concentration 115.2 μM
# [2] = compound concentration 127.7 μM
# [3] = compound concentration 125.3 μM
# [4] = compound concentration 31.25 μM, SEAP signal ratio to 0.5% DMSO
# [5] = compound concentration 206.6 μM
# [6] = compound concentration 153.2 μM
SMILES,"hIFNβ ELISA (EC50, μM) (STING)","Fold change related to DMSO control, WT (STING variants (WT); compound concentration 25 μM) [fold]","Fold change related to DMSO control, HAQ (STING variants (HAQ); compound concentration 25 μM) [fold]",further results
"CCn1nc(C)cc1C(=O)Nc1nc2cc(C(N)=O)cc3c2n1[C@@H](CCNC(=O)COc1ccccc1)CO3 [Example 7, (S)-2-(1-Ethyl-3-methyl-1H-pyrazole-5-carboxamido)-3-(2-(2-phenoxyacetamido)ethyl)-3,4-dihydro-5-oxa-1,2a-diazaacenaphthylene-7-carboxamide]",inactive,,,"Fold change related to DMSO control, WT (STING variants (WT); [1]): 2.70 fold; Fold change related to DMSO control, HAQ (STING variants (HAQ); [1]): 13.64 fold"
"CC[C@H]1COc2cc(C(N)=O)cc3nc(NC(=O)c4cc(C)nn4CC)n1c23 [Example 26, (S)-3-Ethyl-2-(1-ethyl-3-methyl-1H-pyrazole-5-carboxamido)-3,4-dihydro-5-oxa-1,2a-diazaacenaphthylene-7-carboxamide]",,2.00,63.91,EC50 (STING): 11.4 µM
"CCn1nc(C)cc1C(=O)Nc1nc2cc(C(N)=O)cc3c2n1[C@@H](Cc1ccccc1)CO3 [Example 24, (S)-3-Benzyl-2-(1-ethyl-3-methyl-1H-pyrazole-5-carboxamido)-3,4-dihydro-5-oxa-1,2a-diazaacenaphthylene-7-carboxamide]",inactive,2.33,65.85,
"CCC[C@H]1COc2cc(C(N)=O)cc3nc(NC(=O)c4cc(C)nn4CC)n1c23 [Example 23, (S)-2-(1-Ethyl-3-methyl-1H-pyrazole-5-carboxamido)-3-propyl-3,4-dihydro-5-oxa-1,2a-diazacenaphthylene-7-carboxamide]",inactive,2.62,81.27,
"CCn1nc(C)cc1C(=O)Nc1nc2cc(C(N)=O)cc3c2n1[C@@H](CCCCNC(=O)OCc1ccncc1)CO3 [Example 20, Pyridin-4-ylmethyl (S)-(4-(7-carbamoyl-2-(1-ethyl-3-methyl-1H-pyrazole-5-carboxamido)-3,4-dihydro-5-oxa-1,2a-diazaacenaphthylen-3-yl)butyl)carbamate]",inactive,,,"Fold change related to DMSO control, WT (STING variants (WT); [2]): 1.43 fold; Fold change related to DMSO control, HAQ (STING variants (HAQ); [2]): 16.22 fold"
"CCn1nc(C)cc1C(=O)Nc1nc2cc(C(N)=O)cc3c2n1[C@@H](C(C)C)CO3 [Example 25, (S)-2-(1-Ethyl-3-methyl-1H-pyrazole-5-carboxamido)-3-isopropyl-3,4-dihydro-5-oxa-1,2a-diazaacenaphthylene-7-carboxamide]",,2.24,56.18,EC50 (STING): > 16.7 µM
"CCn1nc(C)cc1C(=O)Nc1nc2cc(C(N)=O)cc3c2n1[C@@H](CCNC(=O)OCc1cccnc1)CO3 [Example 8, Pyridin-3-ylmethyl (S)-(2-(7-carbamoyl-2-(1-ethyl-3-methyl-1H-pyrazole-5-carboxamido)-3,4-dihydro-5-oxa-1,2a-diazaacenaphthylen-3-yl)ethyl)carbamate]",inactive,,,"Fold change related to DMSO control, WT (STING variants (WT); compound concentration 73.3 μM): 3.47 fold; Fold change related to DMSO control, HAQ (STING variants (HAQ); compound concentration 73.3 μM): 13.17 fold"
"CCn1nc(C)cc1C(=O)Nc1nc2cc(C(N)=O)cc3c2n1[C@@H](CCCCNC(=O)OCc1ccccn1)CO3 [Example 19, Pyridin-2-ylmethyl (S)-(4-(7-carbamoyl-2-(1-ethyl-3-methyl-1H-pyrazole-5-carboxamido)-3,4-dihydro-5-oxa-1,2a-diazaacenaphthylen-3-yl)butyl)carbamate]",inactive,,,"Fold change related to DMSO control, WT (STING variants (WT); [3]): 1.65 fold; Fold change related to DMSO control, HAQ (STING variants (HAQ); [3]): 20.80 fold"
CCn1nc(C)cc1C(=O)Nc1nc2cc(C(N)=O)cc3c2n1[C@@H](C)CO3 [Example 12],,,,"Fold change related to DMSO control, WT (STING variants (WT); compound concentration 52.6 μM): 3.31 fold; Fold change related to DMSO control, HAQ (STING variants (HAQ); compound concentration 52.6 μM): 27.37 fold; EC50 (STING): > 8.9 µM"
"CCn1nc(C)cc1C(=O)Nc1nc2cc(C(N)=O)cc3c2n1[C@@H](CCCNC(=O)COc1ccccc1)CO3 [Example 33, (S)-2-(1-ethyl-3-methyl-1H-pyrazole-5-carboxamido)-3-(3-(2-phenoxyacetamido)propyl)-3,4-dihydro-5-oxa-1,2a-diazaacenaphthylene-7-carboxamide]",inactive,2.49,20.81,
"CCn1nc(C)cc1C(=O)Nc1nc2cc(C(N)=O)cc3c2n1[C@@H](CCCCNC(=O)OCc1cccnc1)CO3 [Example 18, Pyridin-3-ylmethyl (S)-(4-(7-carbamoyl-2-(1-ethyl-3-methyl-1H-pyrazole-5-carboxamido)-3,4-dihydro-5-oxa-1,2a-diazaacenaphthylen-3-yl)butyl)carbamate]",inactive,,,"Fold change related to DMSO control, WT (STING variants (WT); [6]): 1.58 fold; Fold change related to DMSO control, HAQ (STING variants (HAQ); [6]): 17.64 fold"
"CCn1nc(C)cc1C(=O)Nc1nc2cc(C(N)=O)cc3c2n1CC(C)(C)CO3 [Example 27, 1-(1-Ethyl-3-methyl-1H-pyrazole-5-carboxamido)-8,8-dimethyl-8,9-dihydro-7H-6-oxa-2,9a-diazabenzo[cd]azulene-4-carboxamide]",,2.37,56.43,EC50 (STING): 22.1 µM

# Now from value to compound, other results behind:
"hIFNβ ELISA (EC50, μM) (STING)","Fold change related to DMSO control, WT (STING variants (WT); compound concentration 25 μM) [fold]","Fold change related to DMSO control, HAQ (STING variants (HAQ); compound concentration 25 μM) [fold]",SMILES,further results
inactive,3.02,95.64,"CCn1nc(C)cc1C(=O)Nc1nc2cc(C(N)=O)cc3c2n1[C@@H](C)CCO3 [Example 22, (S)-1-(1-Ethyl-3-methyl-1H-pyrazole-5-carboxamido)-9-methyl-8,9-dihydro-7H-6-oxa-2,9a-diazabenzo[cd]azulene-4-carboxamide]",
inactive,2.34,38.16,"CCn1nc(C)cc1C(=O)Nc1nc2cc(C(N)=O)cc3c2n1CC1(CC1)O3 [Example 28, 2-(1-Ethyl-3-methyl-1H-pyrazole-5-carboxamido)-3H-5-oxa-1,2a-diazaspiro[acenaphthylene-4,1′-cyclopropan]-1,2a^1(5a),6,8-tetraene-7-carboxamide]",
inactive,,,"CCn1nc(C)cc1C(=O)Nc1nc2cc(C(N)=O)cc3c2n1[C@@H](CCCNC(=O)OCc1ccccc1)CO3 [Example 1, Benzyl (S)-(3-(7-carbamoyl-2-(1-ethyl-3-methyl-1H-pyrazole-5-carboxamido)-3,4-dihydro-5-oxa-1,2a-diazaacenaphthylen-3-yl)propyl)carbamate]","Fold change related to DMSO control, WT (STING variants (WT); [4]): 3.08 fold; Fold change related to DMSO control, HAQ (STING variants (HAQ); [4]): 21.49 fold"
inactive,,,"CCn1nc(C)cc1C(=O)Nc1nc2cc(C(N)=O)cc3c2n1[C@@H](CCNC(=O)OCc1ccccn1)CO3 [Example 9, Pyridin-2-ylmethyl (S)-(2-(7-carbamoyl-2-(1-ethyl-3-methyl-1H-pyrazole-5-carboxamido)-3,4-dihydro-5-oxa-1,2a-diazaacenaphthylen-3-yl)ethyl)carbamate]","Fold change related to DMSO control, WT (STING variants (WT); [5]): 2.86 fold; Fold change related to DMSO control, HAQ (STING variants (HAQ); [5]): 21.28 fold"
inactive,,,"CCn1nc(C)cc1C(=O)Nc1nc2cc(C(N)=O)cc3c2n1CCO3 [Example 11, 2-(1-Ethyl-3-methyl-1H-pyrazole-5-carboxamido)-3,4-dihydro-5-oxa-1,2a-diazaacenaphthylene-7-carboxamide]","Fold change related to DMSO control, WT (STING variants (WT); compound concentration 27.9 μM): 2.26 fold; Fold change related to DMSO control, HAQ (STING variants (HAQ); compound concentration 27.9 μM): 4.20 fold"
inactive,2.71,22.11,"CCn1nc(C)cc1C(=O)Nc1nc2cc(C(N)=O)cc3c2n1[C@@H](CCCNC(=O)/C=C/c1ccccc1)CO3 [Example 31, (S)-3-(3-Cinnamamidopropyl)-2-(1-ethyl-3-methyl-1H-pyrazole-5-carboxamido)-3,4-dihydro-5-oxa-1,2a-diazaacenaphthylene-7-carboxamide]",
